Where two headings read alike, the source gives them in different places.
Tests used:
HCT116 cells = experiment: NAD measured in cellular lysates (NAD depletion) of HCT116 cells; type: cell-based, human; conditions: for IC50: Homo sapiens
Method: NAD in cells was measured by modification of existing protocols (Lee, H. I., et al. Exp. Mol. Med. 40, 246-253 (2008)). MCF-10A cells stably transduced with the PIK3CA(H1047R) oncogene were seeded in 96 well plates at very high density (100% confluence) and allowed to settle overnight. Test compound dissolved in DMSO was added and drug incubation proceeded for 20-24 hours. Cells were washed with PBS and harvested by incubation in 25 μL 0.5 M perchloric acid (HClO4) followed by vigorous shaking at 4° C. for 15 minutes. Acidic cell lysates were neutralized by adding 8 μL of 2 M KOH/0.2 M K2HPO4. The entire lysate volume was transferred to a centrifuge plate and spun at 3000 rpm in a table top centrifuge (4° C.) for 5 minutes to clear the precipitate. Lysate was assayed for both NAD and ATP. For NAD measurement, 10 μL lysate from the centrifuged plate was added to 90 μL of reaction solution in Costar 96 half-well plates (Corning, Corning, N.Y.). […]. Reactions were allowed to proceed for 1 hour at room temperature, after which time fluorescence was read on a Gemini plate reader as described above.
Using such methods NAD Depeletion was followed in lysates of Naprt-proficient HCT116 cells, exposed to Exemplary Compound A, as shown in FIG. 4 (a). […].
Kinetics of NAD and ATP depletion in Naprt1-proficient HCT116 cells induced by Exemplary Compound A was studied using the assays described above. HCT116 cells were treated with 8.5 nM Exemplary Compound A and cellular NAD and ATP were measured at various times.
Potency of Exemplary Compound A as a function of time of exposure was also studied using the assays described above. Cells were treated with a range of Exemplary Compound A concentration for varying times of exposure, and IC50 values for NAD and ATP depletion were determined. […].

cell lines = experiment: NA rescue phenotype of cell lines treated with Nampt inhibitor (Nicotinic Acid Rescue Cytotoxicity Assays); type: cell-based
Method: Cell lines were treated with a fixed dose of Exemplary Compound A and screened for NA rescue and Naprt1 expression by immunoblotting and qRT-PCR (Table 3). […] The 176 cell lines included 5 normal (non-cancerous) cell lines and 3 primary cell lines (italicized in the table), all of which rescued. Naprt1 was quantified by western blotting and qRT-PCR in 164 and 123 of the 176 cell lines, respectively. […] A statistically significant (p value <0.0001) correlation existed between a NA rescue phenotype and Naprt1 protein or mRNA expression levels.
Additionally, Nicotinic Acid (NA) rescue of cytotoxicity of Nampt inhibitors was assessed by two distinct methods. In the first method, Nampt1 inhibitor cytotoxicity was evaluated in the presence and absence of exogenous nicotinic acid (NA) at a fixed concentration. […] Twenty four hours after cells were plated, the media was removed and replaced with media containing 10 μM nicotinic acid. Compounds were then immediately added. Cell viability was then assessed at 72 h.
Cell viability was then assessed at 72 h.

[1] = of 176 cell lines tested, fixed dose

O=C(NCc1cccnc1)Nc1ccc(COc2ccccc2-c2ccccc2)cc1 [Exemplary Compound A, 1-{4-[(biphenyl-2-yloxy)methyl]phenyl}-3-(pyridin-3-ylmethyl)urea]
NAD depletion reached before loss of ATP initiated (HCT116 cells; HCT116 cells, 8.5 nM): > 90% | IC50 (HCT116 cells; HCT-116, 0.5 h, exposure 30 min, read-out: potency (IC50) for NAD depletion): 23 nM | IC50 (HCT116 cells; HCT-116, 24 h, HCT116 cells, 24 h, absence of 10 μM NA, read-out: IC50 NAD depletion): 0.26 nM | IC50 (HCT116 cells; HCT-116, 24 h, HCT116 cells, 24 h, presence of 10 μM NA, read-out: IC50 NAD depletion): > 1000 nM | IC50 (HCT116 cells; HCT-116, 48 h, after 48 h exposure, read-out: potency (IC50) for NAD depletion): ~0.6 nM | Rescuable by NA? (cell lines; A172, glioma): no | Rescuable by NA? (cell lines; COLO-205, colorectal): yes | Rescued by NA? (partial indicates <70% rescue) (cell lines; DEL cells (lymphoma)): Y (partial) | Rescuable by NA? (cell lines; DMS-114, SCLC): yes | Rescued by NA? (partial indicates <70% rescue) (cell lines; H4 cells (brain; neuroglioma)): Y (partial) | Rescuable by NA? (cell lines; HCC827, NSCLC): no | Rescuable by NA? (cell lines; HCT-116, colorectal): yes | Rescuable by NA? (cell lines; HT29, colorectal): yes | Rescuable by NA? (cell lines; HT-1080, fibrosarcoma): no | Rescued by NA? (partial indicates <70% rescue) (cell lines; Hepa1-6 cells (mouse; hepatoma)): Y (partial) | Rescued by NA? (partial indicates <70% rescue) (cell lines; MOLP-8 cells (myeloma)): Y (partial) | Rescued by NA? (partial indicates <70% rescue) (cell lines; MONO-MAC-6 cells (lymphocytic leukemia)): Y (partial) | Rescuable by NA? (cell lines; MiaPaCa2, pancreatic): no | Rescuable by NA? (cell lines; NCI-H82, SCLC): yes | Rescuable by NA? (cell lines; NCI-H460, NSCLC): no | Rescuable by NA? (cell lines; NCI-H522, NSCLC): no | Rescued by NA? (partial indicates <70% rescue) (cell lines; NCI-H596 cells (lung (NSCLC))): Y (partial) | Rescuable by NA? (cell lines; NCI-H929, multiple myeloma): no | Rescuable by NA? (cell lines; NCI-H1650, NSCLC): no | Rescuable by NA? (cell lines; NCI-N87, gastric): yes | Rescued by NA? (partial indicates <70% rescue) (cell lines; NOMO-1 cells (myelogenous leukemia)): Y (partial) | Rescuable by NA? (cell lines; OCI-Ly19, DLBCL (NHL)): yes | Rescuable by NA? (cell lines; OPM-2, multiple myeloma): no | Rescuable by NA? (cell lines; OVCAR-8, ovarian): yes | Rescued by NA? (partial indicates <70% rescue) (cell lines; PFSK-1 cells (brain; malignant neuroectodermal tumor)): Y (partial) | Rescued by NA? (partial indicates <70% rescue) (cell lines; RPMI-8226 cells (myeloma)): Y (partial) | Rescuable by NA? (cell lines; SF-295, glioma): no | Rescued by NA? (partial indicates <70% rescue) (cell lines; SKM-1 cells (myelogenous leukemia)): Y (partial) | Rescued by NA? (partial indicates <70% rescue) (cell lines; SR cells (lymphoma)): Y (partial) | Rescued by NA? (partial indicates <70% rescue) (cell lines; SU-DHL-4 cells (lymphoma)): Y (partial) | Rescuable by NA? (cell lines; SU-DHL-5, DLBCL (NHL)): no | Rescued by NA? (partial indicates <70% rescue) (cell lines; SU-DHL-8 cells (lymphoma)): Y (partial) | Rescued by NA? (partial indicates <70% rescue) (cell lines; SUP-M2 cells (lymphoma)): Y (partial) | Rescuable by NA? (cell lines; U-87MG, glioma): no | Fraction not rescued by NA (cell lines; bladder, 1 cell line tested): 0% | Fraction not rescued by NA (cell lines; brain, 30 cell lines tested): 53% | Fraction not rescued by NA (cell lines; breast, 7 cell lines tested): 0% | Fraction not rescued by NA (cell lines; colon, 6 cell lines tested): 0% | Fraction not rescued by NA (cell lines; fibrosarcoma, 5 cell lines tested): 20% | Fraction not rescued by NA (cell lines; gastric, 1 cell line tested): 0% | Fraction not rescued by NA (cell lines; kidney, 5 cell lines tested): 20% | Fraction not rescued by NA (cell lines; liver, 4 cell lines tested): 25% | Fraction not rescued by NA (cell lines; lung, NSCLC, 26 cell lines tested): 27% | Fraction not rescued by NA (cell lines; lung, small cell, 7 cell lines tested): 14% | Fraction not rescued by NA (cell lines; lymphocytic leukemia, 6 cell lines tested): 17% | Fraction not rescued by NA (cell lines; lymphoma, 16 cell lines tested): 38% | Fraction not rescued by NA (cell lines; melanoma, 3 cell lines tested): 0% | Fraction not rescued by NA (cell lines; myelogenous leukemia, 10 cell lines tested): 10% | Fraction not rescued by NA (cell lines; myeloma, 9 cell lines tested): 44% | Rescued by NA? (partial indicates <70% rescue) (cell lines; no.11 cells (brain; glioma, anaplastic)): Y (partial) | number of cell lines completely rescued by NA (cell lines; [1]): 113 | number of cell lines partially rescued by NA (cell lines; [1]): 16 | number of cell lines that did not rescue with NA (cell lines; [1]): 47 | Fraction not rescued by NA (cell lines; osteosarcoma, 6 cell lines tested): 50% | Fraction not rescued by NA (cell lines; ovary, 3 cell lines tested): 0% | Fraction not rescued by NA (cell lines; pancreas, 7 cell lines tested): 14% | cancer cell lines that failed to be rescued or were only partially rescued by NA (cell lines; panel of 147 cancer cell lines): 38% | Fraction not rescued by NA (cell lines; prostate, 2 cell lines tested): 0%

Reference: patent US8912184B1, “Therapeutic and diagnostic methods” (Alzheimer's Institute of America, Inc., priority 2010, dated 2014)
